Peptide text beside a SMILES is read from it.

The subject of assay [1] is brain. As to the kind of experiment: Antiprion activity against Scrapie prion protein-infected mouse brain cells assessed as remaining PrP-res level at 100 uM after 4 days by Western blotting relative to control. In kind it is tissue-based. (In general: In western blotting, separated proteins are transferred to a membrane and probed.)
Assay [2] deals with Major prion protein (Mus musculus) (UniProt P04925). As to the kind of experiment: Inhibition of mouse recombinant PrP interaction with scrapie mouse brain PrP-res assessed as PrP-res formation at 100 uM after 30 mins by aggregation assay relative to control.
Sequence of Major prion protein (Mus musculus) (P04925 whole entry): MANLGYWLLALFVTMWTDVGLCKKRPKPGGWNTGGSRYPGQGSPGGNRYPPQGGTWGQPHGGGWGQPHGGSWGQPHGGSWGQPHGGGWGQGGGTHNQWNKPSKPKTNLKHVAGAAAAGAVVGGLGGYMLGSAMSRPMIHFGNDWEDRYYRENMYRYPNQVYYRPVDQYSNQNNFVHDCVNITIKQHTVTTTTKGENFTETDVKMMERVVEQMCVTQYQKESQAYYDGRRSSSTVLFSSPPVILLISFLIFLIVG
For assay [3] the target is unchanged. As to the kind of experiment: Inhibition of manganese-induced aggregation in mouse recombinant PrP assessed as PrP-res formation at 100 uM after 30 mins relative to control. Details: scale not given: the % may be the effect or the level left.
Assay [4] deals with brain. As to the kind of experiment: Antiprion activity against Scrapie prion protein-infected mouse brain cells assessed as remaining PrP-res level at 10 uM after 4 days by Western blotting relative to control. In kind it is tissue-based.

Regarding H-AAGAAAAG-NH2, the Activity with brain [1] amounted to 108%; in assay [3], 23%. Further, the PrP-res formation relative to control in assay [2] was found to be 23%.
For `C[C@H](NC(=O)CNC(=O)[C@H](C)NC(=O)[C@H](C)NC(=O)[C@H](C)NC(=O)[C@H](C)NC(=O)[C@@H]1CCCN1C(=O)[C@H](C)NC(=O)[C@@H](C)N)C(N)=O`, the results for the Activity (in the assay on brain [1]; in assay [3]) were 66% and 103%, respectively.
With H-KHAAPAAAAGA-NH2, the Activity is 70% with brain [1] and 73% in assay [3].
H-HAAPAAAAGA-NH2: the results for the Activity (with brain [1]; in assay [3]) were 151% and 93%, respectively.
The corresponding values for `C[C@H](NC(=O)CN)C(=O)N1CCC[C@H]1C(N)=O` (H-Gly-Ala-Pro-NH2) are 32% and 111%.
Consider H-PAGAAAPGA-NH2, for which the Activity in the assay on brain [1] came to 79%; in assay [3], 56%.
As to `C[C@H](NC(=O)[C@@H]1CCCN1)C(=O)N1CCC[C@H]1C(N)=O` (H-Pro-Ala-Pro-NH2), the Activity in the assay with brain [1] came to 156%; in assay [3], 59%.
As for H-GAAPPG-NH2, the values for the Activity (in the assay with brain [1]; in assay [3]) were 5% and 240%, respectively.
On to `CC(C)[C@H](NC(=O)[C@H](C)NC(=O)CNC(=O)[C@H](C)NC(=O)[C@H](C)NC(=O)[C@H](C)NC(=O)[C@H](C)NC(=O)[C@@H]1CCCN1C(=O)[C@H](C)NC(=O)[C@@H](C)N)C(N)=O`, for which the figures for the Activity (in the assay with brain [1]; in assay [3]) were 148% and 28%, respectively.
Take H-PLGSAMSR-NH2: the Activity with brain [1] worked out at 45%; in assay [3], 11%.
For `NC(=O)CNC(=O)[C@@H]1CCCN1C(=O)[C@@H]1CCCN1` (H-Pro-Pro-Gly-NH2), the Activity in the assay on brain [1] amounted to 48%; in assay [3], 96%.
In the case of H-AAGAAAA-NH2, in the assay with brain [1], the Activity was found to be 65%.
As to H-MAGAAAAGA-NH2, the Activity in the assay on brain [1] amounted to 89%; in assay [3], 104%.
As for `C[C@H](NC(=O)[C@H](C)NC(=O)[C@@H]1CCCN1)C(N)=O` (H-Pro-Ala-Ala-NH2), the Activity with brain [1] amounted to 51%; in assay [3] it was 88%.
For H-HAAGAAAAGA-NH2, the Activity in the assay on brain [1] was found to be 39%; in assay [3] it was 59%.
Consider `C[C@H](NC(=O)[C@H](C)NC(=O)[C@H](C)NC(=O)[C@H](C)NC(=O)[C@@H]1CCCN1C(=O)[C@H](C)NC(=O)[C@@H](C)N)C(N)=O`, for which the Activity in the assay with brain [1] came out at 195%; in assay [3], 2%. Also, in assay [2], the PrP-res formation relative to control was 2%.
In the case of H-AAGAAAAGAVV-NH2, the Activity in the assay with brain [1] amounted to 34%; in assay [3] it was 17%. The PrP-res formation relative to control in assay [2] came out at 17%. For the same compound, the Remaining PrP-res level with brain [4] came to 200%.
Turning to H-HPAGAAAAGAV-NH2, the Activity with brain [1] was found to be 135%; in assay [3], 74%.
With H-PAGAAAAGAVV-NH2, the Activity in the assay on brain [1] worked out at 132%; in assay [3], 28%. Further, the PrP-res formation relative to control in assay [2] was 28%.
For the compound H-HAAPAAAAGAV-NH2, the Activity was found to be 225% in the assay on brain [1] and 38% in assay [3].
With H-KHPAGAAAAGAVV-NH2, the figures for the Activity (with brain [1]; in assay [3]) were 68% and 73%, respectively.
Consider `C[C@H](NC(=O)[C@H](C)NC(=O)[C@H](C)NC(=O)[C@H](C)NC(=O)[C@@H]1CCCN1C(=O)[C@H](C)NC(=O)[C@@H](C)N)C(=O)NCC(N)=O`, for which the Activity with brain [1] came out at 128%; in assay [3], 46%. Moreover, the PrP-res formation relative to control in assay [2] is 46%.
Turning to `C[C@H](NC(=O)[C@@H]1CCCN1C(=O)[C@H](C)NC(=O)CN)C(=O)O` (H-GAPA-OH), the Activity stood at 47% with brain [1] and 266% in assay [3].
Regarding H-GAAAPP-NH2, the Activity in the assay with brain [1] was determined as 30%; in assay [3], 148%.
Regarding H-KHPAGAAAAGA-NH2, the Activity was found to be 83% in the assay with brain [1] and 19% in assay [3].
Consider H-HAAGAAAPGAV-NH2, for which the Activity in the assay on brain [1] turned out to be 32%; in assay [3] it was 64%.
The corresponding values for `C[C@H](NC(=O)CNC(=O)[C@H](C)NC(=O)[C@@H](C)N)C(=O)N[C@@H](C)C(=O)N[C@@H](C)C(=O)N1CCC[C@H]1C(=O)NCC(=O)N1CCC[C@H]1C(N)=O` are 88% and 27%.
Consider `CC(C)[C@H](NC(=O)[C@@H](NC(=O)[C@H](C)NC(=O)CNC(=O)[C@H](C)NC(=O)[C@H](C)NC(=O)[C@H](C)NC(=O)[C@H](C)NC(=O)[C@@H]1CCCN1C(=O)[C@H](C)NC(=O)[C@@H](C)N)C(C)C)C(N)=O`, for which the Activity with brain [1] amounted to 14%; in assay [3] it was 22%. The PrP-res formation relative to control in assay [2] stood at 22%. The Remaining PrP-res level in the assay on brain [4] turned out to be 131%.
In the case of H-PAGAAAA-NH2, the Activity in the assay on brain [1] worked out at 71%.
Take `CC(C)[C@H](NC(=O)[C@H](C)NC(=O)CNC(=O)[C@@H]1CCCN1C(=O)[C@H](C)NC(=O)[C@H](C)NC(=O)[C@H](C)NC(=O)CNC(=O)[C@H](C)NC(=O)[C@@H](C)N)C(N)=O`: the Activity was 129% in the assay with brain [1] and 54% in assay [3].
Consider `C[C@H](NC(=O)CNC(=O)[C@H](C)NC(=O)[C@@H](C)N)C(=O)N[C@@H](C)C(=O)N[C@@H](C)C(=O)N1CCC[C@H]1C(N)=O`, for which the Activity in the assay on brain [1] worked out at 206%.
In the case of H-KHAAGAAAAGAVV-NH2, the Activity with brain [1] is 93%; in assay [3] it was 112%.
Turning to H-VAGAAAAGA-NH2, the Activity with brain [1] turned out to be 93%; in assay [3] it was 84%.
On the same counts, the results for `C[C@H](NC(=O)[C@@H]1CCCN1C(=O)[C@@H]1CCCN1)C(N)=O` (H-Pro-Pro-Ala-NH2) are 10% and 125%.
The corresponding values for H-HAAGAAAAGAV-NH2 are 74% and 34%.
Regarding H-MLGSAPSR-NH2, the Activity in the assay with brain [1] is 61%; in assay [3], 1%.
With H-GAAAPG-NH2, the Activity in the assay on brain [1] is 124%; in assay [3], 111%.
Consider `CC(C)[C@H](NC(=O)[C@@H](NC(=O)[C@H](C)NC(=O)CNC(=O)[C@@H]1CCCN1C(=O)[C@H](C)NC(=O)[C@H](C)NC(=O)[C@H](C)NC(=O)CNC(=O)[C@H](C)NC(=O)[C@@H](C)N)C(C)C)C(N)=O`, for which the Activity with brain [1] is 5%; in assay [3], 52%. The PrP-res formation relative to control in assay [2] was determined as 52%. For the same compound, the Remaining PrP-res level in the assay on brain [4] was 73%.
With H-GAPAPG-NH2, the Activity in the assay with brain [1] is 52%; in assay [3] it was 85%.
The corresponding values for `C[C@H](NC(=O)[C@@H]1CCCN1C(=O)[C@@H](C)N)C(N)=O` are 45% and 148%.
With H-KHAAGAAAPGA-NH2, the Activity in the assay on brain [1] came out at 44%; in assay [3], 52%.
The corresponding values for `C[C@H](NC(=O)CNC(=O)[C@@H]1CCCN1C(=O)[C@H](C)NC(=O)[C@H](C)NC(=O)[C@H](C)NC(=O)[C@@H]1CCCN1C(=O)[C@H](C)NC(=O)[C@@H](C)N)C(N)=O` are 33% and 85%.
On to `C[C@H](NC(=O)CNC(=O)[C@@H]1CCCN1C(=O)[C@H](C)NC(=O)[C@H](C)NC(=O)[C@H](C)NC(=O)CNC(=O)[C@H](C)NC(=O)[C@@H](C)N)C(N)=O`, for which the Activity in the assay on brain [1] came to 81%; in assay [3], 27%.
As to H-KHAAGAAAAGA-NH2, the results for the Activity (with brain [1]; in assay [3]) were 59% and 102%, respectively.
Turning to H-GPAAPG-NH2, the Activity worked out at 261% in the assay with brain [1] and 48% in assay [3].
For H-HPAGAAAAGA-NH2, the figures for the Activity (in the assay on brain [1]; in assay [3]) were 23% and 11%, respectively. Also, in assay [2], the PrP-res formation relative to control was 11%.
`C[C@H](NC(=O)CNC(=O)[C@@H]1CCCN1C(=O)[C@H](C)NC(=O)[C@H](C)NC(=O)[C@H](C)NC(=O)CNC(=O)[C@@H]1CCCN1C(=O)[C@@H](C)N)C(N)=O`: the Activity is 7% in the assay on brain [1] and 89% in assay [3].
`C[C@H](NC(=O)[C@@H](C)N)C(=O)N1CCC[C@H]1C(=O)NCC(N)=O`: the Activity came to 100% in the assay with brain [1] and 88% in assay [3].
Consider H-AAGAAAAGA-NH2, for which the Activity worked out at 56% with brain [1] and 76% in assay [3].
For the compound H-PAGAAAAGA-NH2, the Activity with brain [1] is 100%; in assay [3], 71%.
Take H-HAAGAAAPGA-NH2: the Activity in the assay on brain [1] amounted to 183%; in assay [3] it was 28%.
In the case of H-KHAAGAAAPGAVV-NH2, the Activity came out at 7% with brain [1] and 86% in assay [3]. Further, in the assay on brain [4], the Remaining PrP-res level is 108%.
Take H-PAGAAAAG-NH2: the Activity in the assay with brain [1] came out at 10%; in assay [3] it was 130%. The Remaining PrP-res level in the assay with brain [4] came out at 158%.
H-KHAAPAAAAGAVV-NH2: the Activity with brain [1] is 68%; in assay [3], 44%. Besides, the PrP-res formation relative to control in assay [2] is 44%.
For the compound H-PAGAAAAGAV-NH2, the figures for the Activity (in the assay on brain [1]; in assay [3]) were 112% and 77%, respectively.
For the compound `C[C@H](NC(=O)CNC(=O)[C@H](C)NC(=O)[C@@H](C)N)C(=O)N[C@@H](C)C(=O)N[C@@H](C)C(=O)N1CCC[C@H]1C(=O)NCC(N)=O`, the Activity is 108% with brain [1] and 2% in assay [3]. Besides, the PrP-res formation relative to control in assay [2] was 2%.
With H-AAGAAAAGAV-NH2, the Activity in the assay with brain [1] came out at 133%; in assay [3] it was 57%.
As for `NCC(=O)N1CCC[C@H]1C(=O)N1CCC[C@H]1C(N)=O` (H-Gly-Pro-Pro-NH2), the Activity with brain [1] stood at 25%; in assay [3] it was 81%.

The values are drawn from ChEMBL document CHEMBL1140991, “Synthesis and testing of peptides for anti-prion activity” (Eur J Med Chem, 2008).
